Reference: patent US8362000B2, “Azetidinyl diamides as monoacylglycerol lipase inhibitors” (Janssen Pharmaceutica NV, priority 2009, dated 2013)
Substitutions are numbered along the chain they refer to. Read-outs that look alike come from different tables or passages of the source.

Tests used:
MGL = target: T1, MGL (Rattus norvegicus, UniProt Q8R431); assay: 2-AG accumulation assay in rat brain homogenate; format: biochemical; conditions: rat brain homogenate, 2-AG accumulation as percent of vehicle; for 2-AG accumulation, % of vehicle control at 1 µM: compound 1 μM, read-out: Rat Brain 2AG % VehCntrl (%) @ 1 μM; for 2-AG accumulation, % of vehicle control at 0.1 µM: compound 0.1 μM, read-out: Rat Brain 2AG % VehCntrl (%) @ 0.1 μM; for 2-AG accumulation, % of vehicle control at 10 µM: compound 10 μM, read-out: Rat Brain 2AG % VehCntrl (%) @ 10 μM
T1 construct: one g rat brain was homogenized using a Polytron homogenizer; from tissue; host or cells: rat brain homogenate
T1 sequence (Q8R431 1-303): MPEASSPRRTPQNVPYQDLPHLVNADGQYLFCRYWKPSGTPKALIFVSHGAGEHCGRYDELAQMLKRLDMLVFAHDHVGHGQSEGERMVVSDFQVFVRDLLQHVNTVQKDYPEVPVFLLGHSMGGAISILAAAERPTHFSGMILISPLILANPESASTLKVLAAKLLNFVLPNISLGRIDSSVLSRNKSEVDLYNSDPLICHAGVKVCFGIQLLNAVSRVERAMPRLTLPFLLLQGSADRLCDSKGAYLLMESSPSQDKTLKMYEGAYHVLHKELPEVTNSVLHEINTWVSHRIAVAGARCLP

mutant MGL = target: T2, mutant MGL (Homo sapiens, UniProt Q99685, L169S/L176S); assay: MGL ThermoFluor assay - mutant; format: binding; conditions: read-out: MGL mutant ThermoFluor Kd
T2 sequence (Q99685 1-303 L169S/L176S): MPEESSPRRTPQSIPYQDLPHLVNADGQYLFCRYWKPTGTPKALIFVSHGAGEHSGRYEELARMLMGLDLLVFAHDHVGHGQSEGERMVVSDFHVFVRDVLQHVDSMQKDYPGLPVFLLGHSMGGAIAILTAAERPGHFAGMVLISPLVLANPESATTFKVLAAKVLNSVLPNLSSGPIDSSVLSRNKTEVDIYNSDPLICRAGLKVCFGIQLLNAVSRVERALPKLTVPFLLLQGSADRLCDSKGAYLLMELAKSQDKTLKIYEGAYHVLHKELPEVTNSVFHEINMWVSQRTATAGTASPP

[1] = tested on: CFA-induced paw radiant heat hypersensitivity; assay: CFA-induced paw radiant heat hypersensitivity; format: in vivo, rat; conditions: Rattus norvegicus, po, 30 mg/kg p.o., HPβCD, last time point 180 or 300 min
[2] = target: T3, purified wild type MGL (wt-MGLL 6H-11-313) (Homo sapiens, UniProt Q99685)
T3 sequence (Q99685 1-303): T2 sequence (Q99685 1-303 L169S/L176S) with S169L, S176L

[3] = group mean values, read-out: CFA thermal hypersensitivity Method 1: peak % reversal
[4] = individual animal values, read-out: CFA thermal hypersensitivity Method 2: peak % reversal
[5] = ThermoFluor concentration-response

| 2-AG accumulation, % of vehicle control at 1 µM (MGL) | Kd (mutant MGL; ThermoFluor thermal stability binding assay) | IC50 [2] | 2-AG accumulation, % of vehicle control at 0.1 µM (MGL) | 2-AG accumulation, % of vehicle control at 10 µM (MGL) | Kd (mutant MGL; [5]) | Compound | inhibition in vivo at 30 mg/kg [1, 3] | inhibition in vivo at 30 mg/kg [1, 4] |
| --- | --- | --- | --- | --- | --- | --- | --- | --- |
| 437% | – | 16 nM | – | – | 214 nM | O=C(c1cccc(-c2ccc(F)cc2F)c1)N1CC(N2CCN(C(=O)c3nccs3)CC2)C1 [Cpd 1117, 1-{1-[(2′,4′-Difluorobiphenyl-3-yl)carbonyl]azetidin-3-yl}-4-(1,3-thiazol-2-ylcarbonyl)piperazine] | 23.2% | – |
| 506% | – | 19 nM | – | – | 250 nM | O=C(c1cccc(-c2cccc(F)c2)c1)N1CC(N2CCN(C(=O)c3nccs3)CC2)C1 [Cpd 1124] | 88.1% | – |
| 761% | – | < 5 nM | – | – | 1 nM | O=C(c1ccc2c(-c3ccc(C(F)(F)F)cc3)c[nH]c2c1)N1CC(N2CCN(C(=O)c3nccs3)CC2)C1 [Cpd 1340] | 13.1% | – |
| 635% | – | < 5 nM | – | – | 1 nM | O=C(c1ccc2c(ccn2-c2ccc(F)c(F)c2)c1)N1CC(N2CCN(C(=O)c3nccs3)CC2)C1 [Cpd 1362, 1-(3,4-Difluorophenyl)-5-({3-[4-(1,3-thiazol-2-ylcarbonyl)piperazin-1-yl]azetidin-1-yl}carbonyl)-1H-indole] | 186% | – |
| 944% | – | < 5 nM | – | – | 1 nM | O=C(c1ccc2c(ccn2-c2ccc(F)cc2F)c1)N1CC(N2CCN(C(=O)c3nccs3)CC2)C1 [Cpd 1364, 1-(2,4-Difluorophenyl)-5-({3-[4-(1,3-thiazol-2-ylcarbonyl)piperazin-1-yl]azetidin-1-yl}carbonyl)-1H-indole] | 17% | – |

More lines, now with the values behind:

| Compound | 2-AG accumulation, % of vehicle control at 1 µM (MGL) | Kd (mutant MGL; ThermoFluor thermal stability binding assay) | IC50 [2] | 2-AG accumulation, % of vehicle control at 0.1 µM (MGL) | 2-AG accumulation, % of vehicle control at 10 µM (MGL) | Kd (mutant MGL; [5]) | inhibition in vivo at 30 mg/kg [1, 3] | inhibition in vivo at 30 mg/kg [1, 4] |
| --- | --- | --- | --- | --- | --- | --- | --- | --- |
| O=C(c1ccc(-c2cccc(C(F)(F)F)c2)c(Cl)c1)N1CC(N2CCN(C(=O)c3cscn3)CC2)C1 [Cpd 1102, 1-(1-{[2-Chloro-3′-(trifluoromethyl)biphenyl-4-yl]carbonyl}azetidin-3-yl)-4-(1,3-thiazol-4-ylcarbonyl)piperazine] | 878% | 6 nM | 13 nM | – | – | – | 38% | 45.3% |
| O=C(c1cscn1)N1CCN(C2CN(C(=O)c3ccc(-c4ccccc4)cc3F)C2)CC1 [Cpd 1108, 1-{1-[(3-Fluorobiphenyl-4-yl)carbonyl]azetidin-3-yl}-4-(1,3-thiazol-4-ylcarbonyl)piperazine] | 204% | – | 14 nM | 117% | 456% | 63 nM | 84.9% | 99.2% |
| O=C(c1ccc2c(ccn2-c2ccc(F)cc2F)c1)N1CC(N2CCN(C(=O)c3cscn3)CC2)C1 [Cpd 1139, 1-(2,4-Difluorophenyl)-5-({3-[4-(1,3-thiazol-4-ylcarbonyl)piperazin-1-yl]azetidin-1-yl}carbonyl)-1H-indole] | 654% | – | 27 nM | – | – | 17 nM | 43.8% | – |
| O=C(c1ccc2nc(-c3ccccc3)sc2c1)N1CC(N2CCN(C(=O)c3cscn3)CC2)C1 [Cpd 1187, 2-Phenyl-6-({3-[4-(1,3-thiazol-4-ylcarbonyl)piperazin-1-yl]azetidin-1-yl}carbonyl)-1,3-benzothiazole] | 319% | – | 92 nM | – | – | 197 nM | 16.3% | – |
| O=C(c1cscn1)N1CCN(C2CN(C(=O)c3ccc(-c4ccccc4)cc3Cl)C2)CC1 [Cpd 1221] | 198% | – | 258 nM | 198% | 522% | 81 nM | 44.7% | 46.7% |
| O=C(c1ccc2c(ccn2-c2ccc(C(F)(F)F)cc2)c1)N1CCN(C2CN(C(=O)c3nccs3)C2)CC1 [Cpd 1338, 5-({4-[1-(1,3-Thiazol-2-ylcarbonyl)azetidin-3-yl]piperazin-1-yl}carbonyl)-1-[4-(trifluoromethyl)phenyl]-1H-indole] | 877% | – | < 5 nM | – | – | 15 nM | 86.3% | – |
| O=C(c1ccc2c(cnn2-c2ccccc2)c1)N1CC(N2CCN(C(=O)c3nccs3)CC2)C1 [Cpd 1360, 1-Phenyl-5-({3-[4-(1,3-thiazol-2-ylcarbonyl)piperazin-1-yl]azetidin-1-yl}carbonyl)-1H-indazole] | 576% | – | < 5 nM | – | – | 8 nM | 40.5% | 40.5% |
| O=C(c1ccc2c(ccn2-c2ccc(F)c(F)c2)c1)N1CC(N2CCN(C(=O)c3cscn3)CC2)C1 [Cpd 1363, 1-(3,4-Difluorophenyl)-5-({3-[4-(1,3-thiazol-4-ylcarbonyl)piperazin-1-yl]azetidin-1-yl}carbonyl)-1H-indole] | 628% | – | < 5 nM | – | – | 14 nM | 69.7% | – |
| O=C(c1ccc2c(ccn2-c2ccc(F)c(F)c2)c1)N1CC(N2CCN(C(=O)c3ccc[nH]3)CC2)C1 [Cpd 1366, 1-(3,4-Difluorophenyl)-5-({3-[4-(1H-pyrrol-2-ylcarbonyl)piperazin-1-yl]azetidin-1-yl}carbonyl)-1H-indole] | 586% | – | < 5 nM | – | – | 12 nM | 47.1% | – |
